Patent publication US7655626B2, “Antiangiogenic peptides” (Universite de Liege, priority 2004, dated 2010)

Legend:
[1] = Lipid phase (liposome) fusion, R18 fluorescence; settings: for Relative liposome fusion, pH 8 UC / Relative liposome fusion, pH 4 UC / Relative liposome fusion, pH 6 UC: uncharged liposomes; for Relative liposome fusion, pH 4 C / Relative liposome fusion, pH 6 C / Relative liposome fusion, pH 8 C: charged liposomes
Procedure: Lipid phase fusion was measured by following the fluorescence of a liposoluble marker, R18. When incorporated into liposomes at a high surface density, R18 fluorescence is attenuated. Upon dilution of the marker through membrane fusion of labeled and unlabeled liposomes, the attenuation is relieved and R18 fluorescence increases. Labeled liposomes were prepared by blending R18 into the lipid film (see table 1). Labeled and unlabeled liposomes were mixed in a 1:4 ratio (w/w) and diluted to a concentration of 50 μM. Fluorescence is measured at room temperature (excitation λ: 560 nm, emission λ: 590 nm) on a Perkin Elmer LS-50B fluorimeter. The ability of PO-PRL to induce liposome fusion was analyzed in two different liposome preparations at different pH (table 1).
The following buffers were used: pH 8 buffer (10 mM Tris-HCl, pH=8; 150 mM NaCl; 0.01% EDTA; 1 mM NaN3), pH 6 buffer (10 mM Sodium-Acetate, pH=6; 150 mM NaCl; 0.01% EDTA; 1 mM NaN3), pH 4 buffer (10 mM Sodium Acetate, pH=4; 57 mM Acetic Acid)
The following concentrations of the peptide were used: • 600 μM corresponding to a molar peptide/lipid ratio (R) of 0.2 • 300 μM corresponding to a peptide/lipid ratio (R) of 0.1 • 150 μM corresponding to a peptide/lipid ratio (R) of 0.05 • 60 μM corresponding to a peptide/lipid ratio (R) of 0.02 • 30 μM corresponding to a peptide/lipid ratio (R) of 0.01.

[2] = Secondary structure by ATR-FTIR; assay type: physicochemical; settings: peptide dissolved in 100% DMSO
Procedure: The conformation of the peptide in solution is analyzed by Fourier transformed infrared spectroscopy (ATR-FTIR). The sample (20 μg) is spread on a Germanium plate and spectra are recorded between 1800 and 1000 cm−1. The deconvolution of the 1700-1600 cm−1 area, corresponding to the amide I band, allows the determination of the secondary structure of the peptide (Goormaghtigh, E., et al. Biochim Biophys Acta 1422:[…] (1999)). The secondary structure of the peptide is given Table 3. Tilted peptides are often in β structure in solution, while being helical in the presence of lipids (Martin, I., et al. Biochem Biophys Res Commun 175:872-9 (1991)).

[3] = system: BACE cells; test: Apoptosis by flow cytometry (propidium iodide, sub-G1 population); assay type: cell-based, Bovine; settings: 10 nM; 18-h treatment; untreated cells 1%
Procedure: In order to determine the effect of MPB-PO-PRL on endothelial cell apoptosis, the inventors have analyzed the DNA content of MBP-PO-PRL treated cells by flow cytometry. For this purpose, DNA was labeled with propidium iodide. Bovine adrenal cortex endothelial (BACE) cells were plated in low-glucose Dulbbecco's modified Eagle's medium containing 10% fetal calf serum (FCS) and 100 U/ml penicillin/streptomycin per ml (10% FCS medium) at a density of cells 5×10^5/100 mm plate. 24 h after plating, cells were treated for 18 h with the proteins of interest. The cells were then harvested and fixed and permeabilized in ice-cold ethanol for 2 h before centrifugation and incubation (at 37° C. for 30 min) in PBS containing Rnase (5 μg/ml) and propidium iodide (50 μg/ml). The cells were analysed using a Coulter Epics XL flow cytometer.

[4] = system: BACE cells; test: In vitro capillary formation, collagen gel assay; assay type: cell-based, Bovine; settings: 10 nM
Procedure: In order to further analyze the ability of the MBP-PO-PRL to prevent angiogenesis in vitro, its capacity to prevent capillary formation was analyzed in a collagen gel assay. This assay was performed as follows: 20000 cells were plated between two collagen gels (5 volumes rat tail collagen, 1 volume 10×M199 medium, 50 mM NaHCO3). Gels were overlaid with 10% FBS medium containing or not recombinant proteins of interest.

[5] = system: B16-F10 murine melanoma cells; test: Viability assay (calcein-AM), B16-F10; assay type: cell-based; settings: 10 nM; 72 h
Procedure: (§1) In order to determine whether the effect of tilted peptides exerted on endothelial cells is cell specific, a viability assay was performed on BACE and ABAE endothelial cells and on two tumoral cells lines, the B16-F10 murine melanoma cells and the MDA-MB-231 human breast cancer cell. Viable cells are detected by the presence of intracellular esterase, determined by the enzymatic conversion of non fluorescent calcein AM (an ester derivative) into fluorescent calcein.
(§2) To determine whether the activity of the MBP-PO-PRL and MBP-PO-GH is specific for endothelial cells, their ability to affect viability of B16-F10 and MDA-MB-231 cell line was determined. 25000 MDA-MB-231 cells and B16-F10 cells were plated in 24-well plates, respectively in 0.5 ml 10% FCS/RPMI medium and in 10% FCS/DMEM 4500 medium. The cells were treated with recombinant proteins or campthotecin for 72 h. Cells were washed, incubated with calcein-AM and fluorescence determined as described above.

[6] = system: MDA-MB-231 human breast cancer cell; test: Viability assay (calcein-AM), MDA-MB-231; assay type: cell-based; settings: 10 nM; 72 h
Procedure: as §1, §2

With FLSLIVSILRSWNE [PO-PRL] the “Relative liposome fusion, pH 8 UC” value ([1]; R 0.05 (150 μM), 15 min) was 38%, the “Relative liposome fusion, pH 4 C” value ([1]; R 0.05, 15 min) was 35% and the “Relative liposome fusion, pH 4 UC” value ([1]; R 0.05, 15 min) was 100%. The “Relative liposome fusion, pH 6 C” value ([1]; R 0.05, 15 min) was 35%, the “Relative liposome fusion, pH 6 UC” value ([1]; R 0.05, 15 min) was 38% and the “Relative liposome fusion, pH 8 C” value ([1]; R 0.05, 15 min) was 34%. For the same molecule, the “Relative liposome fusion, pH 8 UC” value ([1]; R 0.1 (300 μM), 15 min) was 64%, the “Relative liposome fusion, pH 4 C” value ([1]; R 0.1, 15 min) was 34% and the “Relative liposome fusion, pH 4 UC” value ([1]; R 0.1, 15 min) was 105%. For the same molecule, the “Relative liposome fusion, pH 6 C” value ([1]; R 0.1, 15 min) was 44%, the “Relative liposome fusion, pH 6 UC” value ([1]; R 0.1, 15 min) was 55% and the “Relative liposome fusion, pH 8 C” value ([1]; R 0.1, 15 min) was 41%. For the same molecule, the “Relative liposome fusion, pH 4 C” value ([1]; R 0.2, 15 min) was 47%, the “Relative liposome fusion, pH 4 UC” value ([1]; R 0.2, 15 min) was 97% and the “Relative liposome fusion, pH 6 C” value ([1]; R 0.2, 15 min) was 87%. For the same molecule, the “Relative liposome fusion, pH 6 UC” value ([1]; R 0.2, 15 min) was 68%, the “Relative liposome fusion, pH 8 C” value ([1]; R 0.2, 15 min) was 64% and the “Relative liposome fusion, pH 8 UC” value ([1]; R (peptide/lipid) 0.2 (600 μM), after 15 min, reference set at 100%) was 100%. For the same molecule, the “Secondary structure: Alpha” value [2] was 16%, the “Secondary structure: Beta” value [2] was 63% and the “Secondary structure: Coil” value [2] was 9%. For the same molecule, the “Secondary structure: Turn” value [2] was 12%.

B1: 16K hPRL: 16 kDa N-terminal fragment of human prolactin, positive control (protein)
chain: LPICPGGAARCQVTLRDLFDRAVVLSHYIHNLSSEMFSEFDKRYTHGRGFITKAINSCHTSSLATPEDKEQAQQMNQKDFLSLIVSILRSWNEPLYHLVTEVRGMQEAPEAILSKAVEIEEQTKRLLEGMELIVSQVHP
For B1, the “percentage of sub-G1 cell population” value [3] was 55,9%, the “capillary formation in collagen gel” value [4] was “prevents capillary formation” and the cell viability [5] was “do not affect viability”. For the same molecule, the cell viability [6] was “do not affect viability”.
